Test results taken from US20250230165A1, “HETEROCYCLIC COMPOUNDS FOR USE IN THE TREATMENT OF CANCER” (ARTIOS PHARMA LIMITED, priority 2021, published 2025).

Target: T1, Human Polθ polymerase domain (aa1820-2590) (Homo sapiens, UniProt O75417)
T1 construct: Human Polθ polymerase domain (aa1820-2590) was expressed in E. coli; made in house; host or cells: E. coli
T1 sequence (O75417 1820-2590): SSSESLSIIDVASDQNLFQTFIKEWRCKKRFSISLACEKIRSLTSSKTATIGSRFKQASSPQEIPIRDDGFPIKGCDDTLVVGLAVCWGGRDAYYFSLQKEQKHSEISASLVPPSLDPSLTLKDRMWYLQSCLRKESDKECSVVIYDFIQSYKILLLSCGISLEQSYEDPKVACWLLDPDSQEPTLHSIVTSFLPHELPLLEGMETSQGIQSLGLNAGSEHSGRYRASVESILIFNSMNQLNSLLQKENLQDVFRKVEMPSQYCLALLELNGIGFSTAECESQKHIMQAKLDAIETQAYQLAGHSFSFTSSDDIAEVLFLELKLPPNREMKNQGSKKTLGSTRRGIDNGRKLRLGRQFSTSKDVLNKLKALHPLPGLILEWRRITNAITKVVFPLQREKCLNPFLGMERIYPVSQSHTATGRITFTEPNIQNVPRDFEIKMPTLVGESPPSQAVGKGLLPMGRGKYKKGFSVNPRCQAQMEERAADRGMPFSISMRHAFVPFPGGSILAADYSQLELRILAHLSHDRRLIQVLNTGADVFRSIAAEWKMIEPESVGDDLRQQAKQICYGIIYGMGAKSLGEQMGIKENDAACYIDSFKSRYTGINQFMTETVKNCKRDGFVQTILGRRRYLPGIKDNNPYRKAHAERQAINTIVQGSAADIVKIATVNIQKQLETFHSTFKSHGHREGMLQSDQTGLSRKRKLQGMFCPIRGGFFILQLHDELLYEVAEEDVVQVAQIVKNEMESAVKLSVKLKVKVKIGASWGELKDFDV
Assay: Polθ Polymerase Domain Kinact/KI Assay (PicoGreen)
Assay type: biochemical
Conditions: 0.8 nM Polθ, 100 nM DNA substrate, kobs vs [I] fit for 2-step covalent inhibitor
Experimental: Polθ Polymerase Domain Kinact/KI Assay
A PicoGreen assay was used to measure the Kinact and KI values of covalent compounds that inhibit the activity of Polθ in vitro.
Human Polθ polymerase domain (aa1820-2590) was expressed in E. coli, purified, aliquoted and stored at −80° C. until required. Polθ substrate was generated from a 1.2:1 mix of DNA II Short to DNA II Long to give a final concentration of […] substrate in annealing buffer (20 mM Tris pH 7.5, 50 mM NaCl). The substrate was heated in […] aliquots to 95° C. in a heating block for 5 min before the heating block switched off, the reaction left to cool to rt and stored at −20° C. until required.
Assay measurements were performed with 1× buffer comprising 25 mM Tris pH 7.5, 12.5 mM NaCl, […], 5% (v/v) glycerol, 0.01% v/v Triton x-100, 0.1 mg/ml BSA, 1 mM DTT. Test compounds were prepared by dilution in 100% DMSO to give a 12 μM intermediate stock of each (100× final top concentration). 100 nL of 23×1:1.5-fold serial dilutions and a DMSO only control were dispensed using the Tecan dispenser into Greiner 384 well black low volume plates (product code 784076). DMSO concentration was maintained at 1% of the final assay volume by back filling with DMSO.
2× Working stock of substrate (200 nM of DNA substrate and […] dNTPs) and enzyme ([…] PolΘ) were made up in assay buffer. 5 μL/well of both enzyme and substrate 2× solutions were dispensed using a Tempest dispenser (Formulatrix) into assay plates that had been pre-dispensed with compound to give a final assay concentration of 100 nM DNA substrate, […] dNTPs and 0.8 nM Polθ. To stop the reaction, […] of a solution containing 25 mM Tris-HCl pH 7.5 and 20 mM EDTA was added at […] (t=0, 2.5, 5, 7.5, 10, 12.5, 15, 20, 25, 30, 35, 40, 45, 50, 55 and 60 min) using the Tempest's time delay function. The plates were covered during the time course to prevent evaporation. After completing the assay, 5 μL of detection reagent (25 mM Tris-HCl pH 7.5 and 2.5% (v/v) PicoGreen) was dispensed into the wells using a Tempest liquid handler (Formulatrix) and plates subsequently read on the CLARIOstar Plus (BMG Labtech) using the default optical settings for fluorescein and the auto gain/focus settings.
All data analysis was carried out using GraphPad Prism V.8 (GraphPad Software Inc, San Diego, CA) Time course data for each inhibitor concentration was fitted to equation 1 to determine kobs values.^1 Any time points where the control (DMSO alone) reaction was no longer linear were excluded from the analysis. 1) Evaluation of Enzyme Inhibitors in Drug Discovery (Ch9), R. A Copeland, Wiley, 2nd Edition 2013.
A secondary plot of kobs vs [I] is used to determine the Kinact and KI parameters (for a 2-step covalent inhibitor) by fitting to equation 2.^1

Row | SMILES | Kinact/Kl [M⁻¹ s⁻¹]
1 | C=CC(=O)N1CC2(C1)N[C@H](C)CN(CCN1C[C@H]3CC(=O)N(c4cc(C(F)(F)F)cc(C)n4)[C@@H]3C(=O)N(C)c3cccc(F)c31)C2C (mixture of isomers) [Example 37b, (3aR,11aS)-5-(2-((6R,9R/S)-2-acryloyl-6,9-dimethyl-2,5,8-triazaspiro[3.5]nonan-8-yl)ethyl)-6-fluoro-10-methyl-1-(6-methyl-4-(trifluoromethyl)pyridin-2-yl)-1,3a,4,5,10,11a-hexahydro-2H-benzo[b]pyrrolo[2,3-f][1,4]diazocine-2,11(3H)-dione] | 580000
2 | C=CC(=O)N1CC(=O)N2CCN(CCN3C[C@H]4CC(=O)N(c5cc(C(F)(F)F)cc(C)n5)[C@@H]4C(=O)N(C)c4cccc(F)c43)CC2C1 (mixture of isomers) [Example 62a, (3aR,11aS)-5-(2-((R/S)-8-acryloyl-6-oxooctahydro-2H-pyrazino[1,2-a]pyrazin-2-yl)ethyl)-6-fluoro-10-methyl-1-(6-methyl-4-(trifluoromethyl)pyridin-2-yl)-1,3a,4,5,10,11a-hexahydro-2H-benzo[b]pyrrolo[2,3-f][1,4]diazocine-2,11(3H)-dione] | 3.31e+06
3 | C=CC(=O)N1CC(=O)N2CCN(CCN3C[C@H]4CC(=O)N(c5cc(C(F)(F)F)cc(C)n5)[C@@H]4C(=O)N(C)c4cccc(F)c43)CC2C1 (mixture of isomers) [Example 62b, (3aR,11aS)-5-(2-((S/R)-8-acryloyl-6-oxooctahydro-2H-pyrazino[1,2-a]pyrazin-2-yl)ethyl)-6-fluoro-10-methyl-1-(6-methyl-4-(trifluoromethyl)pyridin-2-yl)-1,3a,4,5,10,11a-hexahydro-2H-benzo[b]pyrrolo[2,3-f][1,4]diazocine-2,11(3H)-dione] | 1.26e+06
4 | Cc1cc(C(F)(F)F)cc(N2C(=O)C[C@@H]3CN(Cc4cn5c(n4)CN(C(=O)CCl)C(C)C5)c4c(Cl)cccc4N(C)C(=O)[C@H]32)n1 (mixture of isomers) [Example 73a, (3aR,11aS)-6-chloro-5-(((R/S)-7-(2-chloroacetyl)-6-methyl-5,6,7,8-tetrahydroimidazo[1,2-a]pyrazin-2-yl)methyl)-10-methyl-1-(6-methyl-4-(trifluoromethyl)pyridin-2-yl)-1,3a,4,5,10,11a-hexahydro-2H-benzo[b]pyrrolo[2,3-f][1,4]diazocine-2,11(3H)-dione] | 39000
5 | Cc1cc(C(F)(F)F)cc(N2C(=O)C[C@@H]3CN(Cc4cn5c(n4)CN(C(=O)CCl)C(C)C5)c4c(Cl)cccc4N(C)C(=O)[C@H]32)n1 (mixture of isomers) [Example 73b, (3aR,11aS)-6-chloro-5-(((S/R)-7-(2-chloroacetyl)-6-methyl-5,6,7,8-tetrahydroimidazo[1,2-a]pyrazin-2-yl)methyl)-10-methyl-1-(6-methyl-4-(trifluoromethyl)pyridin-2-yl)-1,3a,4,5,10,11a-hexahydro-2H-benzo[b]pyrrolo[2,3-f][1,4]diazocine-2,11(3H)-dione] | 790000
6 | C=CC(=O)N1CCN2C(=O)CN(CCN3C[C@H]4CC(=O)N(c5cc(C(F)(F)F)cc(C)n5)[C@@H]4C(=O)N(C)c4cccc(F)c43)CC2C1 (mixture of isomers) [Example 116a, (3aR,11aS)-5-(2-((R/S)-8-acryloyl-4-oxooctahydro-2H-pyrazino[1,2-a]pyrazin-2-yl)ethyl)-6-fluoro-10-methyl-1-(6-methyl-4-(trifluoromethyl)pyridin-2-yl)-1,3a,4,5,10,11a-hexahydro-2H-benzo[b]pyrrolo[2,3-f][1,4]diazocine-2,11(3H)-dione] | 1.17e+06
7 | C=CC(=O)N1Cc2cc(CN3C[C@H]4CC(=O)N(c5cc(C(F)(F)F)cc(C)n5)[C@@H]4C(=O)N(C)c4cccc(Cl)c43)cnc2C1COC (mixture of isomers) [Example 236, (3aR,11aS)-5-(((S/R)-6-acryloyl-7-(methoxymethyl)-6,7-dihydro-5H-pyrrolo[3,4-b]pyridin-3-yl)methyl)-6-chloro-10-methyl-1-(6-methyl-4-(trifluoromethyl)pyridin-2-yl)-1,3a,4,5,10,11a-hexahydro-2H-benzo[b]pyrrolo[2,3-f][1,4]diazocine-2,11(3H)-dione] | 1.24e+06

Now from value to compound:

Row | Kinact/Kl [M⁻¹ s⁻¹] | SMILES
8 | 220000 | C=CC(=O)N1CCN2CCN(C(=O)CN3C[C@H]4CC(=O)N(c5cc(C(F)(F)F)cc(C)n5)[C@@H]4C(=O)N(C)c4cccc(F)c43)CC2C1 (mixture of isomers) [Example 76a, (3aR,11aS)-5-(2-((R/S)-8-acryloyloctahydro-2H-pyrazino[1,2-a]pyrazin-2-yl)-2-oxoethyl)-6-fluoro-10-methyl-1-(6-methyl-4-(trifluoromethyl)pyridin-2-yl)-1,3a,4,5,10,11a-hexahydro-2H-benzo[b]pyrrolo[2,3-f][1,4]diazocine-2,11(3H)-dione]
9 | 940000 | C=CC(=O)N1CCN2CCN(C(=O)CN3C[C@H]4CC(=O)N(c5cc(C(F)(F)F)cc(C)n5)[C@@H]4C(=O)N(C)c4cccc(F)c43)CC2C1 (mixture of isomers) [Example 76b, (3aR,11aS)-5-(2-((S/R)-8-acryloyloctahydro-2H-pyrazino[1,2-a]pyrazin-2-yl)-2-oxoethyl)-6-fluoro-10-methyl-1-(6-methyl-4-(trifluoromethyl)pyridin-2-yl)-1,3a,4,5,10,11a-hexahydro-2H-benzo[b]pyrrolo[2,3-f][1,4]diazocine-2,11(3H)-dione]
10 | 2.63e+06 | C=CC(=O)N1CCC(N2CCC(CN3C[C@H]4CC(=O)N(c5cc(C(F)(F)F)cc(C)n5)[C@@H]4C(=O)N(C)c4cccc(C)c43)CC2)C1 (mixture of isomers) [Example 95a, (3aR,11aS)-5-((1-((S/R)-1-acryloylpyrrolidin-3-yl)piperidin-4-yl)methyl)-6,10-dimethyl-1-(6-methyl-4-(trifluoromethyl)pyridin-2-yl)-1,3a,4,5,10,11a-hexahydro-2H-benzo[b]pyrrolo[2,3-f][1,4]diazocine-2,11(3H)-dione]
11 | 2.5e+06 | C=CC(=O)N1CCC(N2CCC(CN3C[C@H]4CC(=O)N(c5cc(C(F)(F)F)cc(C)n5)[C@@H]4C(=O)N(C)c4cccc(C)c43)CC2)C1 (mixture of isomers) [Example 95b, (3aR,11aS)-5-((1-((R/S)-1-acryloylpyrrolidin-3-yl)piperidin-4-yl)methyl)-6,10-dimethyl-1-(6-methyl-4-(trifluoromethyl)pyridin-2-yl)-1,3a,4,5,10,11a-hexahydro-2H-benzo[b]pyrrolo[2,3-f][1,4]diazocine-2,11(3H)-dione]
